# Test results: patent US20120149708A1, “MODULATORS OF VIRAL TRANSCRIPTION, AND METHODS AND COMPOSITIONS THEREWITH” (George Mason University, priority 2010, published 2012)
# How the values were obtained:
# [1] = tested on: CEM cells (uninfected); assay: Cell viability by trypan blue exclusion, 48 hours; type: cell-based
# Protocol: (§1) TZM-bl cell lines were grown in Dulbecco's modified Eagle's medium supplemented with fetal bovine serum (FBS) (10%, v/v), 2 mM L-glutamine, and antibiotics (penicillin 100 U/ml, streptomycin […]) (cDMEM). HCT116 WT and HCT116 Dicer−/−cell lines were grown in McCoy's medium supplemented with FBS (10%, v/v), 2mM L-glutamine, and antibiotics (penicillin 100 U/ml, streptomycin […]). CEM, ACH2, Jurkat and U937 cells were grown in RPMI 1640 supplemented with FBS, L-glutamine, and antibiotics (penicillin 100 U/ml, streptomycin […]). All cell lines were maintained at 37° C. in 5% (v/v) CO2.
# (§2) ACH2 cells are infected with HIV-1; TZM-bl cells contain a stably-integrated HIV-1 LTR-Luciferase reporter; CEM, Jurkat, and U937 cells are uninfected. Transfections were carried out using Attractene (Qiagen) lipid reagent. Cells were cultured to confluence and pelleted at 4° C. for 15 min at 3,000 rpm. The cell pellets were washed twice with 25 ml of phosphate-buffered saline (PBS) with Ca2+ and Mg2+ (Quality Biological) and centrifuged once more. Cell pellets were resuspended in lysis buffer (50 mM Tris-HCl, pH 7.5, 120 mM NaCl, 5 mM EDTA, 0.5%, v/v, NP-40, 50 mM NaF, 0.2 mM Na3VO4, 1 mM DTT, one complete protease cocktail tablet/50 ml (Roche) and incubated on ice for 20 min, with gentle vortexing every 5 min. Cell lysates were transferred to eppendorf tubes and were centrifuged at 10,000 rpm for 10 min. Supernatants were transferred to a fresh tube where protein concentrations were determined using Bio-Rad protein assay (Bio-Rad, Hercules, Calif.).
# (§3) In brief, the inhibition studies were carried out as follows. HIV-1 infected cells ACH2, J1.1, OM10.1, U1 and uninfected CEM, Jurkat T-cells, and U937 were cultured in media. The appropriate inhibitor was added at a concentration of 10 μM. Cells were treated for 48 hours and cell viability was determined using trypan blue exclusion method. Results of such a screen for 19 inhibitors is shown in Table 1 where percent dead cells are indicated each drug tested.
# (§4) Again HIV-1 infected and uninfected cells were treated with eighteen Formula I compounds at a drug concentration of 50 nm. Forty-eight hours after treatment, cytotoxicity was determined by trypan blue dye exclusion. Percent inhibition was calculated after obtaining the cell density for each well of the tissue culture plate at the end of 48 hrs.
# [2] = tested on: U937 cells (uninfected); assay: Cell viability by trypan blue exclusion, 48 hours; type: cell-based
# Protocol: as §1, §2, §3, §4
# [3] = tested on: uninfected CEM, Jurkat T-cells, and U937 cells; assay: MTT assay, uninfected cells; type: cell-based
# Protocol: (§5) FIGS. 1 and 2 show screening results of CR8 derivatives on Tat-dependent transcription HIV-1 LTR. […] TZM-bl cells were transfected with 1 ug of Tat and treated the next day with DMSO, or the indicated CR8 derivative compounds at 50 nm. 48 hrs-post drug treatment, luciferase activity of the firefly luciferase was measured with the BrightGlo Luciferase Assay and luminescence was read from a 96 well plate on an EG&G Berthold luminometer. Assays were performed in triplicate, average and standard deviations are shown.
# (§6) Quantitative MTT assays were performed (FIG. 2), to further validate the cell growth inhibitory activity of certain Formula I compounds. In this study, cultured, infected ACH2, J1.1, OM10.1, U1 and uninfected CEM, Jurkat T-cells, and U937 cells were brought in contact with Formula I compounds CR8, MRT-033, and BJFP1154 (CR8#13). Cell growth inhibition study was performed at two different concentrations of the inventive compounds, a low concentration of 50 nm, and high concentration of 10 μM.
# [4] = tested on: infected ACH2, J1.1, OM10.1, U1 cells; assay: MTT assay, infected cells; type: cell-based; settings: 50 nm and 10 μM
# Protocol: as §5, §6
# [5] = tested on: integrated HIV-1-Luc; assay: Luciferase assay in TSA treated TZM-bl cells; type: cell-based; settings: TSA and CR8#13 versus TSA alone
# Protocol: Luciferase activity increased with TSA treatment and then decreased post-CR8#13 treatment.
# (§7) To observe the effect of drug on heterochrmatin formation, the present inventor used a ChIP assay. Briefly, TZM-bl cells were treated with TSA (FIGS. 16 and 17), and then treated with CR8#13.
# [6] = tested on: HIV-1 LTR; assay: ChIP assay on HIV-1 LTR in TSA treated TZM-bl cells; type: cell-based; settings: TZM-bl after TSA treatment
# Protocol: Primers specific for the HIV-1 LTR were used to amplify DNA that was precipitated with each antibody. Lane 1 indicates basal levels of repressive markers on the HIV-1 LTR.
# TZM-bl cells were treated with TSA for 7 days and processed for ChIP. For ChIP, approximately 5×10^6 cells were used per IP. ChIP assays were performed as previously described. PCR was performed using 0.1 μM of HIV-1 LTR primers (Klase et al, 2007; Guendel et al, 2009; Easley et al, 2010).
# as §7
# [7] = tested on: 3′TAR and 5′TAR microRNA; assay: Poly-A RT-PCR of TAR microRNA in ACH2 cells; type: cell-based, HIV-1; settings: CR8#13 100 nm, 48 hrs
# Protocol: RNA was extracted 48 hrs-post drug treatment. 500 ng of RNA from the microRNA-enriched fraction was used to generate cDNA using the Quantimir kit (SBI). RT reactions are performed followed by PCR in which a universal reverse primer is provided by the manufacturer. Specific microRNA forward primers are identical in sequence to the microRNA of interest. PCR products corresponding to the amplified microRNAs were resolved in a 3.5% (w/v) agarose gel. The PCR products are at around 67 bp as compared with the Fermentas 1 kb DNA Plus Ladder. Increased amounts of 3′ and 5′ TAR microRNA were observed post drug treatment.
# For poly-A RT-PCR detection of microRNAs, 500 ng of RNA from the microRNA-enriched fraction was used to generate cDNA using the Quantimir kit (SBI) according to the manufacturer's protocol. Briefly, small RNA species are poly-adenylated and then reverse transcription reactions are performed with a company-provided RT primer. For PCR, a universal reverse primer is provided by the manufacturer. Specific microRNA forward primers are identical in sequence to the microRNA of interest. PCR products corresponding to the amplified microRNAs were separated in a 3.5% (w/v) agarose gel and quantified using the Kodak 1D software. […]
SMILES,"inhibition at 10 µM ([1]; Homo sapiens, CCRF-CEM, 48 h, 10 μM, 48 hours, read-out: % Inhibition (percent dead cells) CEM) [%]","inhibition at 10 µM ([2]; Homo sapiens, U-937, 10 μM, 48 hours, read-out: % Inhibition (percent dead cells) U937) [%]",cell inhibition of uninfected cells (MTT) ([3]; 50 nm and 10 μM),cell killing of infected cells (MTT) [4],Luciferase activity [5],"Inhibition Percentage CEM ([1]; 50 nM, 48 hrs)","Inhibition Percentage U937 ([2]; 50 nM, 48 hrs)","recruitment of HDAC1, Ago2, Suv39H1 to the HIV-1 promoter (ChIP) [6]",death of uninfected cells (MTT) ([3]; high concentration of 10 μM),5′TAR microRNA levels [7]
CC[C@@H](CO)Nc1nc(NCc2ccc(-c3ccccn3)cc2)c2ncn(C(C)C)c2n1 [CR8],25,50,some cell inhibition activity of uninfected cells,significant cell killing of infected cells over uninfected cells,–,–,–,–,–,–
CC(C)c1cnn2c(NCc3ccc(-c4ccccn4)cc3)nc(NC[C@H](O)CO)nc12.O=C(O)/C=C/C(=O)O [BJFP1154],–,–,–,–,decrease Luciferase activity,− (1-5%),− (1-5%),re-recruitment of heterochromatin markers,"marginal, if any death of uninfected cells",increase in the 5′TAR microRNA levels
